Laboratory results as given in US7265150B1, “Carboxylic acids and carboxylic acid isosteres of N-heterocyclic compounds for vision and memory disorders” (GPI NIL Holdings Inc., priority 1998, dated 2007).
Read-outs that look alike come from different tables or passages of the source.

Experiments:
[1] = Clearance (Table V, Comments); assay type: in vitro ADME
[2] = system: retinal ganglion cells and optic nerve axons; assay: Optic nerve transection, 14 or 28 day treatment, evaluated 90 days after transection (Example 6, Table I); assay type: in vivo, rat; conditions: 90 days after ONT
Excerpt: All eyes and optic nerves stumps were removed.

aged C57BL/6N-Nia mice = assay: Morris watermaze, spatial learning and memory in aged rodents (Example 19); assay type: in vivo, mouse; conditions: 10 mg/kg daily; retention testing after 3 weeks of dosing
Excerpt: The Morris watermaze is widely used for assessing spatial memory formation and retention in experimental animals. The test depends on the animal's ability to utilize spatial visual information in order to locate a submerged escape platform in a water tank. It is important that the tank itself be as devoid of specific visual features as possible-thus, it is always circular in shape, the sides are kept smooth and in uniform dull colors and the water is rendered opaque with nontoxic watercolor pigment or powdered milk. This is to ensure that the animal navigates only by the use of more distant visual cues, or by the use of intra-maze cues specifically provided by the experimenter. The tank is filled to a level which forces the animal to swim actively. Normal mice and rats react […] to the swimming part of the test and will climb onto, and remain on, an escape platform from which they are removed to a heated resting cage. If the platform is visible (i.e. above the surface), animals placed in the tank will quickly learn to home in on the platform and climb out onto it. […] Swim Distances (cm) were analyzed in a 7×5 ANOVA including Groups and Blocks (1-5) as factors in the analysis, treating Blocks as a repeated measure.

[3] = system: retinal ganglion cells, optic nerve axons and myelin; assay: Retinal ischemia (FIG. 1, FIG. 2); assay type: in vivo, rat; conditions: 10 mg/kg s.c. 1 hour prior to ischemia and 10 mg/kg/day for next four days; 28 days after ischemia
Excerpt: Retinal ganglion cells were retrogradely labeled in adult rats by bilateral injection of fluorogold in their lateral geniculate nuclei. Labeled ganglion cells in the normal rat retina appear as white profiles against the dark background (FIG. 1A). Complete retinal ischemia was produced by infusing normal saline solution into the retinal vitreous cavity of each eye until the intraocular pressure exceeded arterial blood pressure. 28 days after the ischemic episode extensive degeneration of retinal ganglion cell was evidenced by massive reduction in the density of fluorogold labeled cells (FIG. 1B).

Clearance ([1]; unit printed as μl/ml)	Clearance [1] [µL/min]	SMILES	Distal optic nerve myelin basic protein Density: shrinkage of cross sectional area ([2]; GPI 1046 14 days, compared to sham control)	Distal optic nerve myelin basic protein Density: myelin loss ([2]; GPI 1046 14 days, cross sectional area multiplied by myelin density)	Distal optic nerve myelin basic protein Density: less shrinkage of cross sectional area ([2]; GPI 1046 28 days)	spatial memory performance (swim distance), retention testing, aged impaired mice vs vehicle (aged C57BL/6N-Nia mice)	protection of retinal ganglion cells after retinal ischemia (fluorogold labeled cells) [3]
21.9		CN(C)C(=O)N1CCC[C@H]1C(=O)SCCCc1ccccc1 [N]					
	63.5	CCC(C)(C)C(=O)C(=O)N1CCC[C@H]1C(=O)OCCCc1cccnc1 [GPI 1046]	did not protect against shrinkage of the distal stump	slightly increase the density of myelin	prevented cross sectional shrinkage	significantly enhanced spatial memory performance	noticeable protection of a large proportion of the vulnerable ganglion cell population
